Experiments:
[1] = tested on: T. cruzi epimastigotes (Tulahuen 2 strain); test: In vitro activity on T. cruzi epimastigotes; type: cell-based; conditions: Trypanosoma cruzi, 120 h, read-out: PGI25μM (%) (epimastigote): percentage of growth inhibition of T. cruzi epimastigote cells
[2] = tested on: T. cruzi; conditions: cited from earlier work

Which inhibition at 25 µM [1] does the source give for `O=P(O)(O)C(O)(Cc1cccnc1)P(=O)(O)O` [NaRis, (1-hydroxy-1-phosphono-2-pyridin-3-yl-ethyl)phosphonate] here?
Its inhibition at 25 µM is 19%.

And the “Parasitemia in infected mice” value [2]?
Its value is “significantly reduces the parasitemia”.

And the “Toxicity in infected mice” value [2]?
The value was “no toxicity”.

What about the Animal survival ([2]; infected mice) of the same molecule?
The Animal survival was “increases the animal survival”.

Source: paper PMC2949467 (Journal of inorganic biochemistry, 2010)
